Experimental data taken from patent US7438931B2, “Methods and compositions for the treatment of angiogenic diseases” (The Regents of The University of Michigan, priority 1998, dated 2008).
“And” between values parts separate entries of the source, which are not always exact repeats. Identical values can stand only once.

Columns and labels:
Cp level = assay: TM loading dosing schedule and Cp reduction; assay type: in vivo, human; conditions: 20 mg tid with meals and a single dose of 60 mg between meals, vs 20 mg tid with meals and 20 mg tid between meals
Description: Therefore, this dosing schedule will be studied in a Phase II study. Three other loading doses of TM will also be studied: Level 1: 20 mg tid between meals and 20 mg tid with meals until Cp<20% (10 patients); Level 2: 25 mg tid between meals and 25 mg tid with meals until Cp<20% (10 patients); and Level 3: 30 mg tid between meals and 30 mg tid with meals until Cp<20% (10 patients).

metastatic solid tumors = assay: Phase I trial: clinical and radiologic response of metastatic cancer; assay type: in vivo, human
Description: Patients with effusions or bone marrow involvement as the only manifestations of disease, and those who had severe intercurrent illness requiring intensive management or were transfusion dependent, were excluded. […] Other requirements were demonstrable progression of disease in the previous 3 months, after standard treatments such as surgery, chemotherapy, radiotherapy, and/or immunotherapy, or progressive disease after declining conventional treatment modalities.
Six patients were to be enrolled at each dose level. After 4 patients were enrolled at level I, if one patient experienced dose-limiting toxicity (DLT) (defined as Hct<80% of baseline), 2 more patients were enrolled at level I. If no DLT was observed, patients were enrolled at the next dose level. Treatment was allowed to continue beyond induction of target copper deficiency, if the patients experienced a partial or complete clinical response or achieved clinical stable disease by the following definitions. Complete response is defined as the disappearance of all clinical and laboratory signs and symptoms of active disease. Partial response is defined as a 50% or greater reduction in the size of measurable lesions defined by the sum of the products of the longest perpendicular diameters of the lesions, with no new lesions or lesions increasing in size. Minor response is defined as a 25-49% reduction in the sum of the products of the longest perpendicular diameters of one or more measurable lesions, no increase in size of any lesions and no new lesions; stable disease is any change in tumor measurements not represented by the criteria for response or progressive disease, which is defined as an increase of 25% or more in the sum of the products of the longest perpendicular diameters of any measurable indicator lesions, compared to the smallest previous measurement or appearance of a new lesion. Because copper deficiency is not a cytotoxic treatment modality, the patients who provide information about the efficacy of TM for long-term therapy, in this population of patients with advanced cancer, are primarily those who remained within the target Cp window of (20±10)% of baseline for over 90 days, without disease progression
Extent of disease was evaluated at entry, at the point of achievement of copper deficiency, defined as Cp at or below 20% of baseline, and every 10-12 weeks thereafter. Computer-assisted tomography or magnetic resonance imaging were used as appropriate for conventional measurement of disease at all known sites and for evaluation of any potential new sites of disease. Angiogenesis-sensitive ultrasound with 3-dimensional Doppler analyses was employed in select cases, as adjunct to conventional imaging, to evaluate the blood flow to the tumors at different time points.
Blood flow was measured by ultrasound in select patients with accessible lesions, at the time they became copper deficient, and at variable intervals of 8-16 weeks thereafter. 3D scanning was performed on a GE Logiq 700 ultrasound system, with the 739L, 7.5 MHz linear array scanhead. The scanning and vascularity quantification techniques were as previously described (Carson et al., 1998; LeCarpentier et al., 1999).

[1] = in vivo, iv; cited from earlier work
copper metabolism = assay: Open label study of TM for initial treatment of Wilson's disease patients; assay type: in vivo, human
Description: The inventors have carried out an open label study of the use of TM for initial treatment of neurologically presenting Wilson's disease patients for the past several years. The inventors have developed both a spectrophotometric and bioassay for the activity of the drug, to evaluate stability, and assure potency of the drug being administered (Brewer et al., 1991a; Brewer et al., 1994b). The drug slowly loses potency when exposed to air.
The inventors have now treated a total of 51 Wilson's disease patients with TM, all of whom presented with neurological or psychiatric disease, in an open label study. These patients were all diagnosed by standard criteria. […] Some of them were treated briefly with other agents prior to this trial. Two patients had psychiatric but not neurological symptoms.
With three exceptions in the earliest part of the study, all patients received a dose of 20 mg tid with meals, or qid with three meals and a snack. Thus, the only difference between a patient receiving 120 mg and 140 mg total dose is that the former was receiving 20 mg tid, or 60 mg, with meals, and the latter was receiving 20 mg qid, or 80 mg with meals plus a snack. The rest of the total daily dose was divided up into three equal doses and given between meals.
TM impacts quickly and favorably on copper metabolism, reducing the potentially toxic copper of the blood and theoretically, the rest of the body. The primary clinical objective is to gain control over copper toxicity while not allowing clinical worsening. In other words, the prime objective is to protect all neurological function that is present at the time therapy is started. This was evaluated weekly by quantitative neurological and speech exams. Methodology and the neurology rating scale system have been published (Young et al., 1986). During the weeks of TM administration, during which copper metabolism is being controlled, neurological function as evaluated by quantitative neurological exam, is protected.

[2] = Target Cp >90 days, + = on therapy
[3] = among the seven anemia patients

Description for mammary tumors: The time of onset of tumors and the quality and quantity of tumor vessels between the treatment and control groups were compared.
The percentage of disease-free mice in the untreated control group was compared to a group of the same transgenic mice treated with 0.5-1.0 mg TM by gavage daily, starting at 100 days of age.

Substance: tetrathiomolybdate [TM]
- speed of Cp reduction (Cp level): reduces the Cp level to <20% more rapidly
- water solubility (Water solubility): moderately water soluble
- development of clinically overt tumors (mammary tumors; 0.5-1.0 mg TM by gavage daily from 100 days of age, median follow-up of 260 days): none of the TM-treated mice developed clinically overt tumors
- maximum tolerated dose (MTD) (mammary tumors; adult mice (average weight 32 grams), prolonged treatment): 1.0 mg/day
- outcome at higher doses (mammary tumors; animals who received 1.25-1.5 mg): died after 1-3 weeks of therapy
- shrinkage of well established mammary tumors (mammary tumors; control animals treated after tumors >1.5 cm, 2 of 3 cases): 25% and 50%
- anemia (mammary tumors; copper (Cp) decreased to below 40% of baseline): no anemia observed
- toxicity (mammary tumors; copper levels decreased to 10% of baseline): no clinically overt toxicity
- time to clinically overt mammary tumors after release from treatment (mammary tumors; cross-over group, previously disease-free): ≤ 18 days
- vascularization of micro-tumors in mammary glands (mammary tumors; microscopic analyses of TM-treated mice): none of the micro-tumors of the treated mice were vascularized
- ceruloplasmin (Cp) (mammary tumors; treatment group): below 40 % of baseline
- duration of stable disease, patient with previously untreated metastatic breast cancer (metastatic solid tumors; TM alone): over 6 months
- No. of Patients: Disease progression (metastatic solid tumors; Target Cp <90 days): 7
- No. of Patients: Stable disease with partial regression of lung lesions (metastatic solid tumors; Target Cp <90 days): 1
- Duration of Cu Deficiency: Stable disease with partial regression of lung lesions (metastatic solid tumors; Target Cp <90 days, + = on therapy): 49+ days
- No. of Patients: Disease progression at one site, stable elsewhere (metastatic solid tumors; Target Cp >90 days): 1/6
- No. of Patients: Stable disease (metastatic solid tumors; Target Cp >90 days): 4/6
- No. of Patients: Stable disease with partial regression of lung lesions (metastatic solid tumors; Target Cp >90 days): 1/6
- Duration of Cu Deficiency: Stable disease, individual patients (metastatic solid tumors; Target Cp >90 days, * = patient discontinued therapy, + = on therapy): 159 days and 329 days and 351 days and 413 days
- Duration of Cu Deficiency (Average): Stable disease (metastatic solid tumors; [2]): 313 days
- Duration of Cu Deficiency: Disease progression at one site, stable elsewhere (metastatic solid tumors; [2]): 120+ days
- Duration of Cu Deficiency: Stable disease with partial regression of lung lesions (metastatic solid tumors; [2]): 120+ days
- disease status, patient with metastatic chondrosarcoma (metastatic solid tumors; long-term therapy): stable disease after 12 months of copper deficiency
- lung lesions in two patients with stable disease (metastatic solid tumors; observation periods at target Cp of 120 and 49 days): complete disappearance of some lung lesions and decrease in size of other lung lesions
- patients with stable disease (metastatic solid tumors; patients copper deficient at the target range for at least 90 days): 5 out of 6 and 5/6
- disease progression after discontinuation of TM therapy (metastatic solid tumors; patients removed from protocol): much more rapid rates of progression of disease
- decrease in blood flow to tumor mass by 3D-ultrasound (metastatic solid tumors; rib metastasis from renal cell carcinoma, approximately 8 weeks after reaching target copper deficiency): 4.4 fold
- excreted in feces [1]: 5%
- excreted in urine [1]: over 90%
- t1/2 of slow plasma disappearance [1]: about 40 h
- cases of reversible anemia (copper metabolism; 45 patients treated eight weeks with TM as initial therapy): 11.1%
- patients with reduction in platelet count (copper metabolism; [3]): Three
- patients with reduction in white blood cell count (copper metabolism; [3]): four
- patients with overtreatment (copper metabolism; dose of 180 mg/day or over): 6 of 37
- patients with overtreatment (copper metabolism; dose of 150 or lower): 1 of 13
- time to close the plasma copper-molybdenum gap (free copper reduced to zero) (copper metabolism; first patient, tid with meals 7 days, then also tid between meals): 16 days
- patients with elevation of transaminase values (serum AST and ALT) (copper metabolism; human, in vivo): four
- patients with reversible anemia/bone marrow depression (copper metabolism; human, in vivo): seven
- quantitative speech exam scores (copper metabolism; initial 8 weeks of TM therapy): No patient shows significant (more than 2.0 units) reduction in scores
- TCA soluble fraction of plasma copper (copper metabolism; late stages of TM therapy, starting value 27): 15 µg/dL
- fall in hemoglobin, average (copper metabolism; patients with anemia): 3.4 g %
- patients with neurological worsening (change of more than 5 units) (copper metabolism; weeks of TM administration, quantitative neurological exam): 4 % of the sample
